Measurements: patent publication US9695155B2, “Herbicidal substituted pyrimidinyloxy benzene compounds” (E. I. DU PONT DE NEMOURS AND COMPANY, priority 2013, dated 2017)

Key:
field violet = test: Test D preemergence; format: in vivo, Viola arvensis; settings: Viola arvensis, pre-emergence
Text: (§1) Seeds of plant species selected from bluegrass (annual bluegrass, Poa annua), blackgrass (Alopecurus myosuroides), canarygrass (littleseed canarygrass, Phalaris minor), chickweed (common chickweed, Stellaria media), galium (catchweed bedstraw, Galium aparine), bromegrass, downy (downy bromegrass, Bromus tectorum), field poppy (Papaver rhoeas), field violet (Viola arvensis), green foxtail (Setaria viridis), deadnettle (henbit deadnettle, Lamium amplexicaule), Italian ryegrass (Lolium multiflorum), kochia (Kochia scoparia), lambsquarters (Chenopodium album), oilseed rape (Brassica napus), pigweed (Amaranthus retroflexus), chamomile (scentless chamomile, Matricaria inodora), Russian thistle (Salsola kali), speedwell (bird's-eye speedwell, Veronica persica), spring barley (Hordeum vulgare), spring wheat (Triticum aestivum), wild buckwheat (Polygonum convolvulus), wild mustard (Sinapis arvensis), wild oat (Avena fatua), wild radish (Raphanus raphanistrum), windgrass (Apera spica-venti), winter barley (Hordeum vulgare), and winter wheat (Triticum aestivum) were planted into a silt loam soil and treated preemergence with test chemicals formulated in a non-phytotoxic solvent mixture which included a surfactant.
(§2) At the same time, these species were planted in pots containing Redi-Earth® planting medium (Scotts Company, 14111 Scottslawn Road, Marysville, Ohio 43041) comprising spaghnum peat moss, vermiculite, wetting agent and starter nutrients and treated with postemergence applications of the test chemicals formulated in the same manner. Plants ranged in height from 2 to 18 cm (1- to 4-leaf stage). Treated plants and controls were maintained in a controlled growth environment for 7 to 21 days after which time all species were compared to controls and visually evaluated. Plant response ratings, summarized in Table D, are based on a scale of 0 to 100 where 0 is no effect and 100 is complete control. A dash (-) response means no test result.

deadnettle = test: Test D preemergence; format: in vivo, Lamium amplexicaule; settings: Lamium amplexicaule, pre-emergence
Text: as §1, §2

lambsquarters [1] = test: Test D preemergence; format: in vivo, Chenopodium album; settings: Chenopodium album, pre-emergence
Summary of the method: (§3)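 Species were sown in silt loam for preemergence treatment, or grown in peat-based medium to the 1–4-leaf stage (2–18 cm) for postemergence sprays. Test chemicals were formulated in a non-phytotoxic solvent mixture with surfactant. After 7–21 days in a controlled environment, plants were rated visually against controls on a 0 (no effect) to 100 (complete control) scale.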

blackgrass = test: Test D postemergence; format: in vivo, Alopecurus myosuroides; settings: Alopecurus myosuroides, post-emergence, Postemergence, scale 0 to 100 (0 no effect, 100 complete control), read-out: Plant response rating, Blackgrass
Summary of the method: as §3

canarygrass = test: Test D postemergence; format: in vivo, Phalaris minor; settings: Phalaris minor, post-emergence
Text: as §1, §2

galium = test: Test D postemergence; format: in vivo, Galium aparine; settings: Galium, post-emergence
Text: as §1, §2

green foxtail = test: Test D postemergence; format: in vivo, Setaria viridis; settings: Setaria viridis, post-emergence
Summary of the method: as §3

kochia = test: Test D postemergence; format: in vivo, Kochia scoparia; settings: Bassia scoparia, post-emergence
Summary of the method: as §3

lambsquarters [2] = test: Test D postemergence; format: in vivo, Chenopodium album; settings: Chenopodium album, post-emergence
Text: as §1, §2

oilseed rape = test: Test D postemergence; format: in vivo, Brassica napus; settings: Brassica napus, post-emergence
Summary of the method: as §3

wild oat = test: Test D postemergence; format: in vivo, Avena fatua; settings: Avena fatua, post-emergence
Summary of the method: as §3

In the case of `FC(F)(F)c1cn(-c2ccccc2Oc2ncc(Cl)cn2)nn1` [Compound 166, 5-chloro-2-[2-[4-(trifluoromethyl)-1H-1,2,3-triazol-1-yl]phenoxy]pyrimidine], the pest or weed control at 16 g/ha (field violet; 16 g ai/ha, scale 0 (no effect) to 100 (complete control), read-out: Plant response rating, Field Violet) is reported as 70%, the pest or weed control at 31 g/ha (field violet; 31 g ai/ha, scale 0-100, read-out: Plant response rating, Field Violet) is reported as 100% and the pest or weed control at 62 g/ha (field violet; 62 g ai/ha, scale 0-100, read-out: Plant response rating, Field Violet) is reported as 100%. The pest or weed control at 125 g/ha (field violet; 125 g ai/ha, scale 0-100, read-out: Plant response rating, Field Violet) was 100%, the pest or weed control at 16 g/ha (deadnettle; 16 g ai/ha, scale 0 (no effect) to 100 (complete control), read-out: Plant response rating, Deadnettle) was 70% and the pest or weed control at 31 g/ha (deadnettle; 31 g ai/ha, scale 0-100, read-out: Plant response rating, Deadnettle) was 75%. For the same compound, the pest or weed control at 62 g/ha (deadnettle; 62 g ai/ha, scale 0-100, read-out: Plant response rating, Deadnettle) was 100%, the pest or weed control at 125 g/ha (deadnettle; 125 g ai/ha, scale 0-100, read-out: Plant response rating, Deadnettle) was 100% and the pest or weed control at 16 g/ha (lambsquarters [1]; 16 g ai/ha, scale 0 (no effect) to 100 (complete control), read-out: Plant response rating, Lambsquarters) was 85%. For the same compound, the pest or weed control at 31 g/ha (lambsquarters [1]; 31 g ai/ha, scale 0-100, read-out: Plant response rating, Lambsquarters) was 95%, the pest or weed control at 62 g/ha (lambsquarters [1]; 62 g ai/ha, scale 0-100, read-out: Plant response rating, Lambsquarters) was 100% and the pest or weed control at 125 g/ha (lambsquarters [1]; 125 g ai/ha, scale 0-100, read-out: Plant response rating, Lambsquarters) was 100%. The pest or weed control at 62 g/ha (blackgrass; 62 g ai/ha) was 40%, the pest or weed control at 16 g/ha (blackgrass; 16 g ai/ha) was 15% and the pest or weed control at 31 g/ha (blackgrass; 31 g ai/ha) was 20%. The pest or weed control at 125 g/ha (blackgrass; 125 g ai/ha) was 65%, the pest or weed control at 16 g/ha (canarygrass; 16 g ai/ha, scale 0-100, read-out: Plant response rating, Canarygrass) was 20% and the pest or weed control at 31 g/ha (canarygrass; 31 g ai/ha, scale 0 to 100 (0 no effect, 100 complete control), read-out: Plant response rating, Canarygrass) was 35%. For the same compound, the pest or weed control at 62 g/ha (canarygrass; 62 g ai/ha, scale 0 to 100 (0 no effect, 100 complete control), read-out: Plant response rating, Canarygrass) was 50%, the pest or weed control at 125 g/ha (canarygrass; 125 g ai/ha, scale 0 to 100 (0 no effect, 100 complete control), read-out: Plant response rating, Canarygrass) was 55% and the pest or weed control at 16 g/ha (galium; 16 g ai/ha, scale 0-100, read-out: Plant response rating, Galium) was 70%. It also gave a pest or weed control at 31 g/ha (galium; 31 g ai/ha, scale 0 to 100 (0 no effect, 100 complete control), read-out: Plant response rating, Galium) of 75%, a pest or weed control at 62 g/ha (galium; 62 g ai/ha, scale 0 to 100 (0 no effect, 100 complete control), read-out: Plant response rating, Galium) of 80% and a pest or weed control at 125 g/ha (galium; 125 g ai/ha, scale 0 to 100 (0 no effect, 100 complete control), read-out: Plant response rating, Galium) of 90%. The pest or weed control at 16 g/ha (green foxtail; 16 g ai/ha, scale 0-100, read-out: Plant response rating, Foxtail, Green) was 10%, the pest or weed control at 31 g/ha (green foxtail; 31 g ai/ha, scale 0 to 100 (0 no effect, 100 complete control), read-out: Plant response rating, Foxtail, Green) was 15% and the pest or weed control at 62 g/ha (green foxtail; 62 g ai/ha, scale 0 to 100 (0 no effect, 100 complete control), read-out: Plant response rating, Foxtail, Green) was 20%. It also gave a pest or weed control at 125 g/ha (green foxtail; 125 g ai/ha, scale 0 to 100 (0 no effect, 100 complete control), read-out: Plant response rating, Foxtail, Green) of 35%, a pest or weed control at 16 g/ha (kochia; 16 g ai/ha, scale 0-100, read-out: Plant response rating, Kochia) of 65% and a pest or weed control at 31 g/ha (kochia; 31 g ai/ha, scale 0 to 100 (0 no effect, 100 complete control), read-out: Plant response rating, Kochia) of 65%. For the same compound, the pest or weed control at 62 g/ha (kochia; 62 g ai/ha, scale 0 to 100 (0 no effect, 100 complete control), read-out: Plant response rating, Kochia) was 90%, the pest or weed control at 125 g/ha (kochia; 125 g ai/ha, scale 0 to 100 (0 no effect, 100 complete control), read-out: Plant response rating, Kochia) was 95% and the pest or weed control at 16 g/ha (lambsquarters [2]; 16 g ai/ha, scale 0-100, read-out: Plant response rating, Lambsquarters) was 80%. The pest or weed control at 31 g/ha (lambsquarters [2]; 31 g ai/ha, scale 0 to 100 (0 no effect, 100 complete control), read-out: Plant response rating, Lambsquarters) was 90%, the pest or weed control at 62 g/ha (lambsquarters [2]; 62 g ai/ha, scale 0 to 100 (0 no effect, 100 complete control), read-out: Plant response rating, Lambsquarters) was 95% and the pest or weed control at 125 g/ha (lambsquarters [2]; 125 g ai/ha, scale 0 to 100 (0 no effect, 100 complete control), read-out: Plant response rating, Lambsquarters) was 95%. The plant injury at 16 g/ha (oilseed rape; 16 g ai/ha, scale 0-100, read-out: Plant response rating, Oilseed Rape) was 60%, the plant injury at 31 g/ha (oilseed rape; 31 g ai/ha, scale 0 to 100 (0 no effect, 100 complete control), read-out: Plant response rating, Oilseed Rape) was 65% and the plant injury at 62 g/ha (oilseed rape; 62 g ai/ha, scale 0 to 100 (0 no effect, 100 complete control), read-out: Plant response rating, Oilseed Rape) was 95%. The plant injury at 125 g/ha (oilseed rape; 125 g ai/ha, scale 0 to 100 (0 no effect, 100 complete control), read-out: Plant response rating, Oilseed Rape) was 100%, the pest or weed control at 16 g/ha (wild oat; 16 g ai/ha, scale 0-100, read-out: Plant response rating, Oat, Wild) was 25% and the pest or weed control at 31 g/ha (wild oat; 31 g ai/ha, scale 0 to 100 (0 no effect, 100 complete control), read-out: Plant response rating, Oat, Wild) was 30%. The pest or weed control at 62 g/ha (wild oat; 62 g ai/ha, scale 0 to 100 (0 no effect, 100 complete control), read-out: Plant response rating, Oat, Wild) was 35% and the pest or weed control at 125 g/ha (wild oat; 125 g ai/ha, scale 0 to 100 (0 no effect, 100 complete control), read-out: Plant response rating, Oat, Wild) was 40%.
